What follows are compounds tested on Escherichia coli (assay: Antibacterial activity against Escherichia coli ECM1194 lacking tolC gene by broth microdilution method). Conditions: not given.
Format: functional
For `O=C(O)CC(=O)Nc1ccc2nc(NC(=O)c3cc(Br)c(Br)[nH]3)sc2c1`, the MIC was less than 16 µg/mL.

The compounds below were run on Escherichia coli (assay: Antibacterial activity against wild type Escherichia coli ECM1194 by broth microdilution method). Conditions: not given.
Format: functional
`O=C(O)CC(=O)Nc1ccc2nc(NC(=O)c3cc(Br)c(Br)[nH]3)sc2c1` showed an MIC greater than 256 µg/mL.

What follows are compounds tested on Escherichia coli (assay: Growth inhibition of Escherichia coli ATCC 25922 at 50 uM after 24 hrs by broth microdilution method). Conditions: ATCC 25922, 24 h, read-out: GI.
Format: functional
`O=C(O)CC(=O)Nc1ccc2nc(NC(=O)c3cc(Br)c(Br)[nH]3)sc2c1` showed an inhibition of growth at 50 µM of 12%.

These compounds were tested on Pseudomonas aeruginosa (assay: Growth inhibition of Pseudomonas aeruginosa ATCC 27853 at 50 uM after 24 hrs by broth microdilution method). Conditions: ATCC 27853, 24 h, read-out: GI.
Format: functional
`O=C(O)CC(=O)Nc1ccc2nc(NC(=O)c3cc(Br)c(Br)[nH]3)sc2c1` was tested, and the inhibition of growth at 50 µM was 11%.

These compounds were tested against DNA gyrase subunit B (Escherichia coli, UniProt P0AES6) (assay: not given). Conditions: not given.
Compound `O=C(O)CCC(=O)Nc1ccc2nc(NC(=O)c3cc(Cl)c(Cl)[nH]3)sc2c1` has an IC50 of 0.43 µM.
Work on `COC(=O)CCC(=O)Nc1nc2ccc(NC(=O)c3cc(Br)c(Br)[nH]3)cc2s1` yielded an IC50 of 0.87 µM.
For `COC(=O)CC(=O)Nc1ccc2nc(NC(=O)c3cc(Br)c(Br)[nH]3)sc2c1`, the IC50 was 2 µM.
`O=C(O)CC(=O)Nc1ccc2nc(NC(=O)c3cc(Br)c(Br)[nH]3)sc2c1` showed an IC50 of 0.14 µM.
`COC(=O)CC(=O)Nc1ccc2nc(NC(=O)c3cc(Cl)c(Cl)[nH]3)sc2c1` gave an IC50 of 0.22 µM.
With `COC(=O)CCC(=O)Nc1ccc2nc(NC(=O)c3cc(Br)c(Br)[nH]3)sc2c1` the IC50 was 7 µM.
`O=C(O)C(=O)Nc1nc2ccc(NC(=O)c3cc(Br)c(Br)[nH]3)cc2s1` showed an IC50 of 0.038 µM.
With `Nc1ccc2nc(NC(=O)c3cc(Cl)c(Cl)[nH]3)sc2c1` the IC50 was greater than 100 µM.
Compound `Nc1ccc2nc(NC(=O)c3cc(Br)c(Br)[nH]3)sc2c1` has an IC50 of 2 µM.
With `O=C(O)CCC(=O)Nc1nc2ccc(NC(=O)c3cc(Br)c(Br)[nH]3)cc2s1` the IC50 was 0.057 µM.
In the case of `CCOC(=O)C(=O)Nc1nc2ccc(NC(=O)c3cc(Cl)c(Cl)[nH]3)cc2s1`, the IC50 is reported as 1.8 µM.
`CCOC(=O)C(=O)Nc1ccc2nc(NC(=O)c3cc(Br)c(Br)[nH]3)sc2c1` showed an IC50 of 29 µM.
`CCOC(=O)C(=O)Nc1nc2ccc(NC(=O)c3cc(Br)c(Br)[nH]3)cc2s1` gave an IC50 of 0.081 µM.
`O=C(O)CCC(=O)Nc1ccc2nc(NC(=O)c3cc(Br)c(Br)[nH]3)sc2c1` showed an IC50 of 0.033 µM.
`O=C(O)CC(=O)Nc1ccc2nc(NC(=O)c3cc(Cl)c(Cl)[nH]3)sc2c1` was tested, and the IC50 was 0.12 µM.
`COC(=O)CCC(=O)Nc1ccc2nc(NC(=O)c3cc(Cl)c(Cl)[nH]3)sc2c1` showed an IC50 of 35 µM.
`CCOC(=O)C(=O)Nc1ccc2nc(NC(=O)c3cc(Cl)c(Cl)[nH]3)sc2c1` was tested, and the IC50 was greater than 100 µM.
`COC(=O)CC(=O)Nc1nc2ccc(NC(=O)c3cc(Cl)c(Cl)[nH]3)cc2s1` showed an IC50 of 7.9 µM.
Work on `COC(=O)CC(=O)Nc1nc2ccc(NC(=O)c3cc(Br)c(Br)[nH]3)cc2s1` yielded an IC50 of 0.24 µM.

These compounds were tested against DNA gyrase subunit B (Staphylococcus aureus, UniProt P0A0K8) (assay: not given). Conditions: not given.
DNA gyrase subunit B (Staphylococcus aureus, UniProt P0A0K8), sequence (P0A0K8 whole entry): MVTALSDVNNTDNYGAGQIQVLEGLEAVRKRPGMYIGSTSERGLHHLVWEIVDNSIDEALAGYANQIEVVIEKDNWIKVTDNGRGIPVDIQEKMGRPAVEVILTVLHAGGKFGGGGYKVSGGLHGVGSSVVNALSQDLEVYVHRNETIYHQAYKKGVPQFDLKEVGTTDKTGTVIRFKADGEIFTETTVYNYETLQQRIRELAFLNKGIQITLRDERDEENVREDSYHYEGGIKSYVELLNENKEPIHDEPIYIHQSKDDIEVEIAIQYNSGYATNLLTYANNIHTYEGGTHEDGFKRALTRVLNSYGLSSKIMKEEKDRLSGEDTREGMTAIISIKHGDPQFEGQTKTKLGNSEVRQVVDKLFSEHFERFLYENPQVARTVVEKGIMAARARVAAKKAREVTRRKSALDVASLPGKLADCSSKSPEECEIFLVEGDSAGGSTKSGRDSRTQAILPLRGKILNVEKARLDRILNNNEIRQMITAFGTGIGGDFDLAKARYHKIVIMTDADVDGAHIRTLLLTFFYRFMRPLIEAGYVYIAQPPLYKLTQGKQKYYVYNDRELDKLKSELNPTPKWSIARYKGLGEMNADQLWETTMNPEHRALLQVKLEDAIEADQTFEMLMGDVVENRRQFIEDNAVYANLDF
Work on `O=C(O)CCC(=O)Nc1ccc2nc(NC(=O)c3cc(Cl)c(Cl)[nH]3)sc2c1` yielded an IC50 of 94 µM.
With `COC(=O)CCC(=O)Nc1nc2ccc(NC(=O)c3cc(Br)c(Br)[nH]3)cc2s1` the IC50 was greater than 100 µM.
Work on `O=C(O)C(=O)Nc1ccc2nc(NC(=O)c3cc(Cl)c(Cl)[nH]3)sc2c1` yielded an IC50 of 0.51 µM.
Compound `COC(=O)CC(=O)Nc1ccc2nc(NC(=O)c3cc(Br)c(Br)[nH]3)sc2c1` has an IC50 greater than 100 µM.
`O=C(O)CC(=O)Nc1ccc2nc(NC(=O)c3cc(Br)c(Br)[nH]3)sc2c1` was tested, and the IC50 was 5.6 µM.
For `COC(=O)CC(=O)Nc1ccc2nc(NC(=O)c3cc(Cl)c(Cl)[nH]3)sc2c1`, the IC50 was greater than 100 µM.
`COC(=O)CCC(=O)Nc1ccc2nc(NC(=O)c3cc(Br)c(Br)[nH]3)sc2c1` showed an IC50 greater than 100 µM.
Work on `O=C(O)C(=O)Nc1nc2ccc(NC(=O)c3cc(Br)c(Br)[nH]3)cc2s1` yielded an IC50 greater than 100 µM.
With `Nc1ccc2nc(NC(=O)c3cc(Cl)c(Cl)[nH]3)sc2c1` the IC50 was greater than 100 µM.
`Nc1ccc2nc(NC(=O)c3cc(Br)c(Br)[nH]3)sc2c1` was tested, and the IC50 was greater than 100 µM.
`O=C(O)CCC(=O)Nc1nc2ccc(NC(=O)c3cc(Br)c(Br)[nH]3)cc2s1` gave an IC50 greater than 100 µM.
In the case of `CCOC(=O)C(=O)Nc1nc2ccc(NC(=O)c3cc(Cl)c(Cl)[nH]3)cc2s1`, the IC50 is reported as greater than 100 µM.
Work on `CCOC(=O)C(=O)Nc1ccc2nc(NC(=O)c3cc(Br)c(Br)[nH]3)sc2c1` yielded an IC50 greater than 100 µM.
For `CCOC(=O)C(=O)Nc1nc2ccc(NC(=O)c3cc(Br)c(Br)[nH]3)cc2s1`, the IC50 was greater than 100 µM.
`O=C(O)CCC(=O)Nc1ccc2nc(NC(=O)c3cc(Br)c(Br)[nH]3)sc2c1` was tested, and the IC50 was greater than 100 µM.
`O=C(O)CC(=O)Nc1ccc2nc(NC(=O)c3cc(Cl)c(Cl)[nH]3)sc2c1` gave an IC50 of 8.5 µM.
`COC(=O)CCC(=O)Nc1ccc2nc(NC(=O)c3cc(Cl)c(Cl)[nH]3)sc2c1` showed an IC50 greater than 100 µM.
Compound `CCOC(=O)C(=O)Nc1ccc2nc(NC(=O)c3cc(Cl)c(Cl)[nH]3)sc2c1` has an IC50 greater than 100 µM.
In the case of `COC(=O)CC(=O)Nc1nc2ccc(NC(=O)c3cc(Cl)c(Cl)[nH]3)cc2s1`, the IC50 is reported as greater than 100 µM.
Compound `COC(=O)CC(=O)Nc1nc2ccc(NC(=O)c3cc(Br)c(Br)[nH]3)cc2s1` has an IC50 greater than 100 µM.

What follows are compounds tested on Enterococcus faecalis (assay: microbe, parasite or virus in culture). Conditions: ATCC 29212, 24 h, read-out: GI.
Description: Growth inhibition of Enterococcus faecalis ATCC 29212 at 50 uM after 24 hrs by broth microdilution method
In the case of `O=C(O)CC(=O)Nc1ccc2nc(NC(=O)c3cc(Br)c(Br)[nH]3)sc2c1`, the inhibition of growth at 50 µM is reported as 59%.
`CCOC(=O)C(=O)Nc1nc2ccc(NC(=O)c3cc(Cl)c(Cl)[nH]3)cc2s1` gave an inhibition of growth at 50 µM of 47%.

— ChEMBL document CHEMBL3861980, “Discovery of Benzothiazole Scaffold-Based DNA Gyrase B Inhibitors” (J Med Chem, 2016)
